From patent US10787443B2, “RAF-degrading conjugate compounds” (ZAMBONI CHEM SOLUTIONS INC., priority 2017, dated 2020)

The compounds below were run on GST-Braf kinase domain and biotinylated E3 substrate adapter (VHL/EloB/EloC complex or CRBN318-425) (assay: Dimerization assay (AlphaScreen/AlphaLisa), RAF/E3 dimerization). Details: Table 15; relative value; compounds 4 fold serial dilutions from 20 μM.
Assay type: binding

Structure (SMILES)	RAF/E3 Dimerization
Cc1ncc(NC(=O)c2cccc(C(F)(F)F)c2)cc1-c1cnc(OCCCCCCc2cn(CCCCCC(=O)Nc3cccc4c3C(=O)N(C3CCC(=O)NC3=O)C4=O)nn2)c(N2CCOCC2)c1 (stereo not drawn) [Compound 1.006, N-(6′-((6-(1-(6-((2-(2,6-dioxopiperidin-3-yl)-1,3-dioxoisoindolin-4-yl)amino)-6-oxohexyl)-1H-1,2,3-triazol-4-yl)hexyl)oxy)-2-methyl-5′-morpholino-[3,3′-bipyridin]-5-yl)-3-(trifluoromethyl)benzamide]	+ (5% > RAF/E3 Dimerization)

Same assay, conditions: Table 17; relative value; compounds 4 fold serial dilutions from 20 μM

Structure (SMILES)	RAF/E3 Dimerization
Cc1ncc(NC(=O)c2cccc(C(F)(F)F)c2)cc1-c1cnc(OC(C)Cc2cnnn2CCCCCC(=O)Nc2cccc3c2C(=O)N(C2CCC(=O)NC2=O)C3=O)c(N2CCOCC2)c1 (racemic) [Compound 1.010, (±)-N-(6′-((1-(1-(6-((2-(2,6-dioxopiperidin-3-yl)-1,3-dioxoisoindolin-4-yl)amino)-6-oxohexyl)-1H-1,2,3-triazol-5-yl)propan-2-yl)oxy)-2-methyl-5′-morpholino-[3,3′-bipyridin]-5-yl)-3-(trifluoromethyl)benzamide]	+ (5% > RAF/E3 Dimerization)
CNc1ncc2cc(-c3cc(NC(=O)NCCCCCCOCCOCCOCCOCC(=O)N[C@@H](C(=O)N4C[C@H](O)C[C@H]4C(=O)N[C@@H](C)c4ccc(-c5scnc5C)cc4)C(C)(C)C)c(F)cc3C)c(C)nc2n1 [Compound 2.043, (2S,4R)-1-((R)-22-(tert-butyl)-1-((2-fluoro-4-methyl-5-(7-methyl-2-(methylamino)pyrido[2,3-d]pyrimidin-6-yl)phenyl)amino)-1,20-dioxo-9,12,15,18-tetraoxa-2,21-diazatricosan-23-oyl)-4-hydroxy-N—((S)-1-(4-(4-methylthiazol-5-yl)phenyl)ethyl)pyrrolidine-2-carboxamide]	++ (25% > RAF/E3 Dimerization ≥ 5%)
Cc1ccc(NC(=O)c2cccc(C(F)(F)F)c2)cc1-c1cnc(OC(C)Cc2cnnn2CCCCCC(=O)Nc2cccc3c2C(=O)N(C2CCC(=O)NC2=O)C3=O)c(N2CCOCC2)c1 (racemic) [Compound 1.011, (±)-N-(3-(6-((1-(1-(6-((2-(2,6-dioxopiperidin-3-yl)-1,3-dioxoisoindolin-4-yl)amino)-6-oxohexyl)-1H-1,2,3-triazol-5-yl)propan-2-yl)oxy)-5-morpholinopyridin-3-yl)-4-methylphenyl)-3-(trifluoromethyl)benzamide]	+ (5% > RAF/E3 Dimerization)
Cc1ncc(NC(=O)c2cccc(C(F)(F)F)c2)cc1-c1cnc(OCCOCCOCC(=O)NCCCCCc2cccc3c2CN(C2CCC(=O)NC2=O)C3=O)c(N2CCOCC2)c1 (stereo not drawn) [Compound 2.017, N-(6′-(2-(2-(2-((5-(2-(2,6-dioxopiperidin-3-yl)-1-oxoisoindolin-4-yl)pentyl)amino)-2-oxoethoxy)ethoxy)ethoxy)-2-methyl-5′-morpholino-[3,3′-bipyridin]-5-yl)-3-(trifluoromethyl)benzamide]	++++ (75% > RAF/E3 Dimerization ≥ 50%)
O=C1CCC(N2Cc3c(CCCOCCNC(=O)c4cc(Oc5ccc(NC(=O)Nc6ccc(Cl)c(C(F)(F)F)c6)cc5)ccn4)cccc3C2=O)C(=O)N1 (stereo not drawn) [Compound 2.032, 4-(4-(3-(4-chloro-3-(trifluoromethyl)phenyl)ureido)phenoxy)-N-(2-(3-(2-(2,6-dioxopiperidin-3-yl)-1-oxoisoindolin-4-yl)propoxy)ethyl)picolinamide]	+ (5% > RAF/E3 Dimerization)
Cc1ccc(NC(=O)c2cccc(C(F)(F)F)c2)cc1-c1cnc(OCCOCCOCCOCc2cn(CCCCCC(=O)N[C@@H](C(=O)N3C[C@H](O)C[C@H]3C(=O)N[C@@H](C)c3ccc(-c4scnc4C)cc3)C(C)(C)C)nn2)c(N2CCOCC2)c1 [Compound 2.011, (2S,4R)-1-((R)-3,3-dimethyl-2-(6-(4-((2-(2-(2-((5-(2-methyl-5-(3-(trifluoromethyl)benza-mido)phenyl)-3-morpholinopyridin-2-yl)oxy)ethoxy)ethoxy)ethoxy)methyl)-1H-1,2,3-triazol-1-yl)hexanamido)butanoyl)-4-hydroxy-N—((S)-1-(4-(4-methylthiazol-5-yl)phenyl)-ethyl)pyrrolidine-2-carboxamide]	+++++ (RAF/E3 Dimerization ≥75%)
CCCCCCNC(=O)Nc1cc(-c2cc3cnc(NCCCCc4cn(CCCCCC(=O)N[C@@H](C(=O)N5C[C@H](O)C[C@H]5C(=O)N[C@@H](C)c5ccc(-c6scnc6C)cc5)C(C)(C)C)nn4)nc3nc2C)c(C)cc1F [Compound 2.037, (2S,4R)-1-((R)-2-(6-(4-(4-((6-(4-fluoro-5-(3-hexylureido)-2-methylphenyl)-7-methylpyrido[2,3-d]pyrimidin-2-yl)amino)butyl)-1H-1,2,3-triazol-1-yl)hexanamido)-3,3-dimethylbutanoyl)-4-hydroxy-N—((S)-1-(4-(4-methylthiazol-5-yl)phenyl)ethyl)pyrrolidine-2-carboxamide]	++++ (75% > RAF/E3 Dimerization ≥ 50%)
CNc1ncc2cc(-c3cc(NC(=O)NCCOCCOCCOCCOCCOCC(=O)N[C@@H](C(=O)N4C[C@H](O)C[C@H]4C(=O)N[C@@H](C)c4ccc(-c5scnc5C)cc4)C(C)(C)C)c(F)cc3C)c(C)nc2n1 [Compound 2.040, (2S,4R)-1-((R)-21-(tert-butyl)-1-((2-fluoro-4-methyl-5-(7-methyl-2-(methylamino)pyrido[2,3-d]pyrimidin-6-yl)phenyl)amino)-1,19-dioxo-5,8,11,14,17-pentaoxa-2,20-diazadocosan-22-oyl)-4-hydroxy-N—((S)-1-(4-(4-methylthiazol-5-yl)phenyl)ethyl)pyrrolidine-2-carboxamide]	+ (5% > RAF/E3 Dimerization)
Cc1ncc(NC(=O)c2cccc(C(F)(F)F)c2)cc1-c1cnc(O[C@@H]2CCO[C@@H](COCc3cn(CCCCCC(=O)N[C@@H](C(=O)N4C[C@H](O)C[C@H]4C(=O)N[C@@H](C)c4ccc(-c5scnc5C)cc4)C(C)(C)C)nn3)C2)c(N2CCOCC2)c1 [Compound 2.005]	++++ (75% > RAF/E3 Dimerization ≥ 50%)
O=C1CCC(N2C(=O)c3cccc(CCCOCCOCCNC(=O)c4cc(Oc5ccc(NC(=O)Nc6ccc(Cl)c(C(F)(F)F)c6)cc5)ccn4)c3C2=O)C(=O)N1 (stereo not drawn) [Compound 2.030, 4-(4-(3-(4-chloro-3-(trifluoromethyl)phenyl)ureido)phenoxy)-N-(2-(2-(3-(2-(2,6-dioxopiperidin-3-yl)-1,3-dioxoisoindolin-4-yl)propoxy)ethoxy)ethyl)picolinamide]	++ (25% > RAF/E3 Dimerization ≥ 5%)
CNc1ncc2cc(-c3cc(NC(=O)NCCOCCOCC(=O)N[C@@H](C(=O)N4C[C@H](O)C[C@H]4C(=O)N[C@@H](C)c4ccc(-c5scnc5C)cc4)C(C)(C)C)c(F)cc3C)c(C)nc2n1 [Compound 2.042, (2S,4R)-1-((R)-12-(tert-butyl)-1-((2-fluoro-4-methyl-5-(7-methyl-2-(methylamino)pyrido[2,3-d]pyrimidin-6-yl)phenyl)amino)-1,10-dioxo-5,8-dioxa-2,11-diazatridecan-13-oyl)-4-hydroxy-N—((S)-1-(4-(4-methylthiazol-5-yl)phenyl)ethyl)pyrrolidine-2-carboxamide]	+ (5% > RAF/E3 Dimerization)
